US8129527B2, “Analogs of dehydrophenylahistins and their therapeutic use” (Nereus Pharmacuticals, Inc., priority 2006, dated 2012)
Like-named read-outs stand apart in the source and are kept apart here.

Columns and labels:
[1] = test system: P388 murine leukemia cells; assay: Cytotoxic effect in P388 cells; format: cell-based; settings: Mus musculus, P388, read-out: IC50 (nM) P-388; Table 2
Excerpt: The cytotoxic effects of phenylahistin, dehydrophenylahistin and various derivatives of dehydrophenylahistin were examined in P388 murine leukemia cells, HT-29 human colon cells, and PC-3 prostatic adenocarcinoma cells.

[2] = test system: PC-3 prostatic adenocarcinoma cells; assay: Tumor cytotoxicity assay, resazurin fluorescence, 48 h (Example 6); format: cell-based, human; settings: Homo sapiens; Table 2; read-out: EC50 (nM) PC-3
Procedure: 10× concentrated serial dilutions of the two compounds were prepared in appropriate culture medium for final concentrations ranging from 2.0×10^−5 M to 2.0×10^−10 M. Ten μl volumes of the 10× serial dilutions were added to the test wells in triplicate and the plates returned to the incubator for 48 hours.
(§1) Following 48 hours of drug exposure 10 μl of 0.2 mg/ml resazurin (obtained from Sigma-Aldrich Chemical Co.) in Mg^2+, Ca^2+ free PBS was added to each well and the plates were returned to the incubator for 3-4 hours. […] Resazurin dye without cells was used to determine the background, which was subtracted from the data for all experimental wells. The data were analyzed using Prism software (GraphPad Software).
PC-3, a human prostate adenocarcinoma, was maintained in F12K complete medium (F12K medium supplemented with 10% FBS; 2 mM Glutamine; 1% HEPES; and Pen/Strep at 100 IU/ml and 100 µg/ml, respectively).

[3] = test system: Jurkat cells (human T cell leukemia line); assay: DNA fragmentation (DNA laddering); format: cell-based
Excerpt: A late stage characteristic of apoptosis is internucleosomal DNA cleavage that results in a distinctive ladder pattern that can be visualized by gel electrophoresis.

[4] = test system: Trichophyton mentagrophytes; assay: Antifungal susceptibility testing, broth dilution (MIC/MFC); format: cell-based; settings: in words
Procedure: Specifically, disclosed compounds were evaluated alongside commercially available microtubulin inhibitors as well as recognized antifungal agents. […].
Microorganisms against which these compounds were tested included: Candida albicans, Candida glabrata, Aspergillus fumigatus, Trichophyton rubrum, Trichophyton mentagrophytes, Epidermophyton floccosum. With the exception of Candida glabrata (one isolate), two isolates of each species were tested.
Drug concentrations were 0.03-16 μg/ml for the investigational compounds, 0.015-8 μg/ml for itraconazole and griseofulvin.
The minimum lethal concentration (MLC) was determined by plating […] from the MIC concentration and each concentration above the MIC. […] When a MIC was obtained, a minimum fungicidal concentration (MFC) was determined to assess the fungistatic/fungicidal nature of the compound. […] The compound is scored as fungistatic if the cells are able to resume growth and fungicidal if no regrowth is possible because the compound had killed the organisms.

Trichophyton rubrum = assay: as above; format: cell-based; settings: in words
In short: (§2)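 Tested against two isolates per species (one for C. glabrata). After MIC, fungicidal concentration determined by plating 0.1 μl from MIC and each higher concentration.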

Candida albicans = assay: as above; format: cell-based; settings: Candida albicans; C. albicans 90028; read-out: MIC
In short: as §2

Candida glabrata = assay: as above; format: cell-based; settings: Nakaseomyces glabratus; C. glabrata; read-out: MIC
In short: as §2

Aspergillus fumigatus = assay: as above; format: cell-based; settings: Aspergillus fumigatus, read-out: MIC
In short: as §2

HT-29 human colon cells = assay: Tumor cytotoxicity assay, resazurin fluorescence, 48 h (Example 6); format: cell-based
[5] = test system: B16-F10 murine melanoma cells; assay: B16-F10 Metastatic Murine Melanoma Model; format: in vivo, B6D2F1 mice; settings: monotherapy, lung surface metastases day 16
Procedure: (§3) The animals used were: female nude mice (nu/ni) (MDA-231 study) or B6D2F1 (B16-F10 studies) mice between 5 and 6 weeks of age (˜20 g, Harlan); group size was 10 mice per group unless otherwise indicated.
(§4) The cell lines used were: MDA-MB-231 human breast tumor and B16-F10 murine melanoma cells.
(§5) NPI compounds were administered as monotherapy via the intraperitoneal route at the doses indicated for the individual study; for the combination studies the selected reference chemotherapy agents were injected 15-30 min prior to the NPI compound.
Mice received B16-F10 cells (prepared from an in vitro cell culture of B16-F10 cells) by the iv route on Day 0. On Day 1 mice were randomized into treatment and control groups and treatment commenced. Mice were weighed twice weekly, starting on Day 1. All mice are sacrificed on Day 16, the lungs removed, weighed and the surface colonies counted. Results are expressed as mean colonies of treated mice/mean colonies of control mice (T/C)×100%). The metastasis growth inhibition (MGI) is this number subtracted from 100%. Paclitaxel was the standard chemotherapy agent used in this study.
In this model unless otherwise noted for the individual study, the test compounds were administered via the intraperitoneal route on Days 1-5 (qdx5); paclitaxel was administered intravenously on Days 1-5(qdx5).

[6] = test system: MES-SA/Dx5 multidrug resistant; assay: Cell growth inhibition assay, resazurin (Example 11); format: cell-based, human
Procedure: (§6) Human uterine sarcoma (MES-SA; CRL-1976), its multidrug resistant derivative (MES-SA/Dx5; CRL-1977), human acute promyelocytic leukemia cells (HL-60; CCL-240) and its multidrug resistant derivative (HL-60/MX2; CRL-2257) were purchased from ATCC and maintained in appropriate culture media. The cells were cultured in an incubator at 37° C. in 5% CO2 and 95% humidified air.
(§7) For cell growth inhibition assays, MES-SA and MES-SA/Dx5 cells were both seeded at 3×10^3 cells/well in 90 μl complete media into 96 well (Corning; 3904) black-walled, clear-bottom tissue culture plates and the plates were incubated overnight to allow cells to establish and enter log phase growth. HL-60 and HL-60/MX2 cells were both seeded at 5×10^4 cells/well in 90 μl complete media into 96 well plates on the day of compound addition. 20 mM stock solutions of the compounds were prepared in 100% DMSO and stored at −80° C. […] Ten μl volumes of the 10× serial dilutions were added to the test wells in triplicate and the plates returned to the incubator for 48 hours. The final concentration of DMSO was 0.25% in all samples.
as §1, with “exposure,” for “exposure”, “phosphate buffered saline” for “PBS”, “3-6” for “3-4”, “dye in medium” for “dye”, “wells.” for “wells. The data were analyzed using Prism software (GraphPad Software).”
(§8) The multidrug resistant MES-SA/Dx5 tumor cell line was derived from the human uterine sarcoma MES-SA tumor cell line and expresses elevated P-Glycoprotein (P-gp), an ATP dependent efflux pump. The data in Table 19 summarize the growth inhibitory effects of NPI-2421, NPI-2463, NPI-2503, NPI-2504 and NPI-2506 against MES-SA and its multidrug resistant derivative MES-SA/Dx5. Paclitaxel, a known substrate of the P-gp pump was included as a control.

[7] = test system: MDA-231 human breast tumor; assay: MDA-231 Human Breast Tumor Orthotopic Xenograft Model (mammary fat pad); format: in vivo, nude mice; settings: Breast MDA-231 (1 study); Paclitaxel qdx5 alone
Procedure: as §3, §4, §5
Female nude mice were injected in the mammary fat pad with 2×10^6 MDA-231 cells harvested from in vitro cell culture. When the tumor size reached 5 mm×5 mm (about 14-28 days) the animals were matched into treatment and control groups. The study then proceeded as described for the HT-29 model, using paclitaxel as the standard chemotherapy agent.
In this model unless otherwise noted for the individual study, the test compounds were administered via the intraperitoneal route on Days 1, 4, 8, 11 and 15 (q3dx5); paclitaxel was administered via the intraperitoneal route on Days 1-5 (qdx5).
This model involves the placement of the human tumor tissue into the mouse mammary fat pad, a surrogate of the natural environment. In this manner the possibility of a positive effect due to a specific action on the subcutaneous vascular bed is avoided.

[8] = test system: MES-SA human uterine sarcoma; assay: Cell growth inhibition assay, resazurin (Example 11); format: cell-based; settings: mean ± standard deviation of three independent experiments
Procedure: as §6, §7
as §1, with “exposure,” for “exposure”, “phosphate buffered saline” for “PBS”, “3-6” for “3-4”, “dye in medium” for “dye”, “wells.” for “wells. The data were analyzed using Prism software (GraphPad Software).”
as §8

[9] = test system: DU-145 human prostate tumor; assay: DU-145 Human Prostate Tumor Xenograft Model; format: in vivo, nude mice; settings: taxotere alone
MCF-7 human breast tumor = assay: MCF-7 Human Breast Tumor Xenograft Model; format: in vivo, nude mice; settings: Breast MCF-7 (2 studies); Taxotere Days 1, 3, 5 alone
Procedure: (§9) Animals used were (exceptions are indicated for individual studies): female nude mice (nu/nu) between 5 and 6 weeks of age (˜20 g, Harlan); group size was 9-10 mice per group unless otherwise indicated.
(§10) Selected novel compounds were administered as monotherapy via the intraperitoneal (i.p.) route at the doses indicated for the individual study; for the combination studies the selected reference chemotherapy agents were injected 15-30 min prior to the compound.
(§11) Saline dilutions are used to achieve the injection concentrations used for the reference compounds.
Female nude mice (˜20 g) were implanted s.c. with 21-day release estrogen (0.25 mg) pellets 24 hours prior to the s.c. implantation with MCF-7 tumor fragments (harvested from s.c. tumors in nude mice hosts). The study then proceeded as described for the HT-29 model, using taxotere as the standard chemotherapy agent.
In this model unless otherwise noted for the individual study, the novel compounds were injected via the intraperitoneal route daily on Days 1-5, inclusive (qdx5); taxotere was administered intravenously on Days 1, 3 and 5 (qodx3).
The doses of the compounds were administered on Days 1, 2, 3, 4, and 7; Taxotere was administered on Days 1, 3 and 7.

[10] = test system: A549 human non small cell lung tumor; assay: A549 Human Lung Tumor Xenograft Model; format: in vivo, nude mice
Procedure: as §9, §10, §11
Animals were implanted s.c. by trocar with fragments of A549 tumors harvested from s.c. growing tumors in nude mice hosts. When the tumor size reached 5 mm×5 mm (about 10-17 days) the animals were matched into treatment and control groups.

[11] = test system: HL-60/MX-2 (Mitoxantrone-Resistant); assay: Drug resistant cell line pair, cytotoxicity (Example 10B); format: cell-based, human; settings: HL-60 Resistant IC50 relative to HL-60 Sensitive
Excerpt: 2) Human Acute Promyelocytic Leukemia Cell Line Pair: HL-60 (Mitoxantrone-Sensitive) and HL-60/MX-2 (Mitoxantrone-Resistant)

[12] = test system: MES-SA/Dx5 (Taxol Resistant) human uterine sarcoma; assay: as above; format: cell-based; settings: vs MES-SA
Excerpt: 1) Human Uterine Sarcoma Tumor Cell Line Pair: MES-SA (Taxol Sensitive) and MES-SA/Dx5 (Taxol Resistant).

[13] = test system: HL-60/MX2 multidrug resistant; assay: Cell growth inhibition assay, resazurin (Example 11); format: cell-based, human
Procedure: as §6, §7
as §1, with “exposure,” for “exposure”, “phosphate buffered saline” for “PBS”, “3-6” for “3-4”, “dye in medium” for “dye”, “wells.” for “wells. The data were analyzed using Prism software (GraphPad Software).”
HL-60/MX2 is a multidrug resistant tumor cell line derived from the human promyelocytic leukemia cell line, HL-60 and expresses reduced topoisomerase II activity. The data presented in Table 20 summarize the growth inhibitory effects of NPI-2421, NPI-2463, NPI-2503, NPI-2504 and NPI-2506 against HL-60 and its multidrug resistant derivative HL-60/MX2. Mitoxantrone, the topoisomerase II targeting agent was included as a control.

Jurkat cells = assay: cells; format: cell-based
[14] = Lung A549 (1 study), Taxotere Days 1, 3, 5 alone

## C=CC(C)(C)c1[nH]cnc1/C=c1\[nH]c(=O)/c(=C/c2ccccc2)[nH]c1=O [KPU-1, Dehydrophenylahistin]
[1]
  IC50: 36 ± 12.8 nM
[2]
  EC50: 4.7 nM
[3]
  DNA laddering potency compared with KPU-2: much less potent
[4]
  antifungal potency versus the sensitive T. mentagrophytes isolate: weaker but more comparable to the others
Trichophyton rubrum
  antifungal potency versus T. rubrum: significantly less potent than the other compounds
Candida albicans
  MIC: > 68 µg/mL
Candida glabrata
  MIC: > 68 µg/mL
Aspergillus fumigatus; A. fumigatus isolate #1
  MIC: > 16 µg/mL
Aspergillus fumigatus; A. fumigatus isolate #2
  MIC: > 16 µg/mL
HT-29 human colon cells; Homo sapiens, HT-29, Table 2, read-out: EC50 (nM) HT-29
  EC50: 48 nM
HT-29 human colon cells; Homo sapiens, HT-29, Table 5, synthetic potent dehydroPLH derivatives, read-out: EC50
  EC50: 48 nM
HT-29 human colon cells; Table 6, proliferation of HT-29 cells, read-out: EC50
  EC50: 48 nM

## CC(=O)O[C@H]1C(=O)[C@@]2(C)[C@H]([C@H](OC(=O)c3ccccc3)[C@]3(O)C[C@H](OC(=O)[C@H](O)[C@@H](NC(=O)c4ccccc4)c4ccccc4)C(C)=C1C3(C)C)[C@]1(OC(C)=O)CO[C@@H]1C[C@@H]2O [Paclitaxel, reference compound]
[5]
  MGI (metastasis growth inhibition): 35.0%
[6]; Homo sapiens, MES-SA/Dx5, mean ± standard deviation of three independent experiments
  EC50: 2000 ± 150 nM
[6]; ratio of EC50 values (MES-SA/Dx5:MES-SA)
  Fold change: 417
[6]; vs MES-SA
  less active against the resistant MES-SA/Dx5 cells: ~400 times
[7]
  Tumor Growth Inhibition (%) Reference Agent: 53%
  Tumor Regression (#/total) Reference Agent: 1/10
[8]
  EC50: 4.8 ± 2.1 nM

## CC(=O)O[C@@]12CO[C@@H]1C[C@H](O)[C@@]1(C)C(=O)[C@H](O)C3=C(C)[C@@H](OC(=O)[C@H](O)[C@@H](NC(=O)OC(C)(C)C)c4ccccc4)C[C@@](O)([C@@H](OC(=O)c4ccccc4)[C@H]21)C3(C)C [Taxotere, reference compound]
[9]
  TGI vs NCI criterion: did not reach the NCI established criterion for a positive effect
MCF-7 human breast tumor
  Tumor Regression (#/total) Reference Agent: 0/20
[10]; [14]
  Tumor Growth Inhibition (%) Reference Agent: 26%
  Tumor Regression (#/total) Reference Agent: 0/10
[10]; taxotere alone
  TGI: 26.1%

## O=C1c2c(O)ccc(O)c2C(=O)c2c(NCCNCCO)ccc(NCCNCCO)c21 [mitoxantrone, Mitoxantrone, reference compound]
[11]
  Ratio to Sensitive: 24.1
[12]
  reduced susceptibility of the MES-SA/DX5 cell line: 20 fold
[13]; ratio of EC50 values (HL-60/MX2:HL-60)
  Fold change: 26
[13]; vs HL-60
  less active against the resistant HL-60/MX2 cells: ~26 times
Jurkat cells; Homo sapiens, Jurkat, read-out: Cytotoxicity Potency IC50
  IC50: 41 nM
Jurkat cells; human
  Cytotoxicity Efficacy % Cell Death: 99%

## (±)-phenylahistin
Human hepatic P450s
  major metabolites P1 and P3, share of the recovered metabolites: more than 60%
  metabolites detected: at least seven metabolites were detected

## phenylahistin [halimide, reference compound]
[3]
  DNA laddering potency compared with KPU-2: much less potent
